Test results from patent US6608082B1, “Treatment of erectile dysfunction using isoquinoline compound melanocortin receptor ligands” (Lion Bioscience AG, priority 1998, dated 2003).

Tests used:
IL-10 = assay: Increasing levels of IL-10 in mice (plasma ELISA); assay type: in vivo; conditions: for % IL-10 Induction, IP 30: 30 μg per mouse; for % IL-10 Induction, IP 30 / % IL-10 Induction, IP 300 / % IL-10 Induction, Oral 600 / % IL-10 Induction, IP 100: mouse plasma, 90 or 105 minutes; for % IL-10 Induction, IP 300: 300 μg per mouse; for % IL-10 Induction, Oral 600: 600 μg per mouse; for % IL-10 Induction, IP 100: 100 μg per mouse
Method in brief: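 Mice were dosed intraperitoneally at 30, 100 or 300 μg/mouse or orally at 300 or 600 μg/mouse, and plasma was sampled 90 or 105 min post-dose. IL-10 was quantified by sandwich ELISA (rat anti-mouse capture, biotinylated detection antibody, streptavidin-HRP/TMB) against IL-10 standards.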

MCR-5 = target: T1, MCR-5 (Homo sapiens, UniProt P33032); assay: Melanocortin receptor binding assay, competition with 125I-HP 467, HEK 293 cells expressing hMCR-5; conditions: binding to MCR-5, HEK 293 cells; read-out: MC-5 IC50
T1 construct: expressed in transfected cells; host or cells: HEK 293
T1 sequence (P33032 whole entry): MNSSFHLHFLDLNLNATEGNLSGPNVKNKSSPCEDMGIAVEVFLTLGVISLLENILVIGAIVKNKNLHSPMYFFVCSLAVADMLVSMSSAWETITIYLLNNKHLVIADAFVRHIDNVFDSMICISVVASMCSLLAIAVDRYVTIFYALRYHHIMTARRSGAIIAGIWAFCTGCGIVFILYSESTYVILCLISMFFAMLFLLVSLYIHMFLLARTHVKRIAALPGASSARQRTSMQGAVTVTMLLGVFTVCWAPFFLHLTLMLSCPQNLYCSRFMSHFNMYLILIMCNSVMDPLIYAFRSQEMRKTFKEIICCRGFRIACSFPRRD
Text: All cell culture media and reagents were obtained from GibcoBRL (Gaithersburg Md.), except for COSMIC CALF SERUM (HyClone; Logan Utah). HEK-293 cell lines were transfected with the human MC receptors hMCR-1, hMCR-3, and hMCR-4 (Gantz et al., Biochem. Biophys. Res. Comm. 200:1214-1220 (1994); Gantz et al., J. Biol. Chem. 268:8246-8250 (1993); Gantz et al. J. Biol. Chem. 268:15174-15179 (1993); Haskell-Leuvano et al., Biochem. Biophys. Res. Comm. 204:1137-1142 (1994); each of which is incorporated herein by reference). Vectors for construction of an hMCR-5 expressing cell line were obtained, and a line of HEK 293 cells expressing hMCR-5 was constructed (Gantz, supra, 1994). hMCR-5 has been described previously (Franberg et al., Biochem. Biophys. Res. Commun. 236:489-492 (1997); Chowdhary et al., Cytogenet. Cell Genet. 68:1-2 (1995); Chowdhary et al., Cytogenet. Cell Genet. 68:79-81 (1995), each of which is incorporated herein by reference). HEK 293 cells were maintained in DMEM, 25 mM HEPES, 2 mM glutamine, non-essential amino acids, vitamins, sodium pyruvate, 10% COSMIC CALF SERUM, 100 units/ml penicillin, 100 μg/ml streptomycin and 0.2 mg/ml G418 to maintain selection.
Before assaying, cells were washed once with phosphate buffered saline (“PBS”; without Ca^2+ and Mg^2+), and stripped from the flasks using 0.25% trypsin and 0.5 mM EDTA. Cells were suspended in PBS, 10% COSMIC CALF SERUM and 1 mM CaCl2. Cell suspensions were prepared at a density of 2×10^4 cells/ml for HEK 293 cells expressing hMCR-3, hMCR-4 or hMCR-5, and 1×10^5 cells/ml for HEK 293 cells expressing hMCR-1. Suspensions were placed in a water bath and allowed to warm to 37° C. for 1 hr.
Binding assays were performed in a total volume of 250 μl for HEK 293 cells. Control and test compounds were dissolved in distilled water. ^125I-HP 467 (50,000 dpm) (2000 Ci/mmol) (custom labeled by Amersham; Arlington Heights Ill.) was prepared in 50 mM Tris, pH 7.4, 2 mg/ml BSA, 10 mM CaCl2, 5 mM MgCl2, 2 mM EDTA and added to each tube. To each tube was added 4×10^3 HEK 293 cells expressing hMCR-3, hMCR-4 or hMCR-5, or 2×10^4 cells expressing hMCR-1. Assays were incubated for 2.5 hr at 37° C.
GF/B filter plates were prepared by soaking for at least one hour in 5 mg/ml BSA and 10 mM CaCl2. Assays were filtered using a Brandel 96-well cell harvester (Brandel Inc.; Gaithersburg, Md.). The filters were washed four times with cold 50 mM Tris, pH 7.4, the filter plates were dehydrated for 2 hr and 35 μl of MICROSCINT was added to each well. Filter plates were counted using a Packard Topcount (Packard Instrument Co.) and data analyzed using GraphPad PRISM v2.0 (GraphPad Software Inc.; San Diego Calif.) and Microsoft EXCEL v5.0a (Microsoft Corp.; Redmond Wash.).
To assay isoquinoline compounds, binding assays were performed in duplicate in a 96 well format. HP 467 was prepared in 50 mM Tris, pH 7.4, and ^125I-HP 467 was diluted to give 100,000 dpm per 50 μl. An isoquinoline compound, synthesized as described in Example I, was added to the well in 25 μl aliquots. A 25 μl aliquot of ^125I-HP 467 was added to each well. A 0.2 ml aliquot of suspended cells was added to each well to give the cell numbers indicate above, and the cells were incubated at 37° C. for 2.5 hr. Cells were harvested on GF/B filter plates as described above and counted.
Some of the isoquinoline compounds were further tested for binding to MCR-3 and MCR-5.

MCR-1 = target: T2, MCR-1 (Homo sapiens, UniProt Q01726); assay: Melanocortin receptor binding assay, competition with 125I-HP 467, HEK 293 cells expressing hMCR-1; conditions: for % Disp. of 125I-HP 467 (first of duplicate) / % Disp. of 125I-HP 467 (second of duplicate): 10 μM isoquinoline compound; for % Disp. of 125I-HP 467 (first of duplicate): HEK 293 cells expressing MCR-1, duplicate 1; for % Disp. of 125I-HP 467 (second of duplicate): HEK 293 cells expressing MCR-1, duplicate 2
T2 construct: expressed in transfected cells; host or cells: HEK 293
T2 sequence (Q01726 whole entry): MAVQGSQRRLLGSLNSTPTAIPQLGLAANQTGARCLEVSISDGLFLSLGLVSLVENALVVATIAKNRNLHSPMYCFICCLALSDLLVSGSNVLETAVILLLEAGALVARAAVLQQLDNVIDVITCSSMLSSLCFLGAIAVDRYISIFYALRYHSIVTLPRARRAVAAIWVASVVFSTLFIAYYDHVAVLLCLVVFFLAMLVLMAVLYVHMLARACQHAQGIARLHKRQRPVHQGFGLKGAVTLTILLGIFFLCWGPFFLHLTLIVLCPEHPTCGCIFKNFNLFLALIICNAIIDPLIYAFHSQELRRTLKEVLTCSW
Method in brief: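 Intact-cell competition binding, 2.5 hr at 37 °C, in PBS/10% calf serum/1 mM CaCl2; hMCR-4 cells at 4×10^3 per tube, hMCR-1 cells at 2×10^4 per tube. Filtration on BSA/CaCl2-soaked GF/B, cold 50 mM Tris pH 7.4 washes, scintillation count.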

Row | Structure (SMILES) | % IL-10 Induction, IP 30 (IL-10) [%] | % IL-10 Induction, IP 300 (IL-10) [%] | % IL-10 Induction, Oral 600 (IL-10) [%] | increase of IL-10 (IL-10; plasma levels in mice) | IC50 (MCR-5) [µM] | % Disp. of 125I-HP 467 (first of duplicate) (MCR-1) [%] | % Disp. of 125I-HP 467 (second of duplicate) (MCR-1) [%] | specificity for at least one MC receptor over another MC receptor (MCR-1; MCR-1 versus MCR-4 binding) | effectiveness as MC receptor ligand (MCR-1; binding to MC receptors, Table 1) | % IL-10 Induction, IP 100 (IL-10) [%]
1 | CNC(CN)CCCCN1Cc2ccccc2C(CNC2CCCCC2)C1c1ccc(Oc2ccccc2)cc1 (centres unmarked) [TRG 2405-252] | 2 ± 13 | 307 ± 43 | 69 ± 19 | particularly effective at increasing IL-10 | 1.86 | 95.1 | 95.5 | about 10 fold | particularly effective MC receptor ligands | –
2 | CNC(CN)CCCCN1Cc2ccccc2C(CNC2CCCCC2)C1c1ccc(C(F)(F)F)cc1 (centres unmarked) [TRG 2405-238] | −17 ± 7 | 118 ± 25 | 65 ± 15 | – | 0.43 | 76.8 | 72.8 | – | – | 151 ± 26
3 | CNC(CN)CCCCN1Cc2ccccc2C(CNC2CCCCC2)C1c1ccc2cccc(O)c2n1 (centres unmarked) [TRG 2405-262] | – | 191 ± 53 | – | – | > 10 | 66.1 | 66.8 | – | – | –
4 | CNC(CN)CCCCN1Cc2ccccc2C(CNC2CCCCC2)C1c1ccc(N(C)C)cc1 (centres unmarked) [TRG 2405-235] | −11 ± 13 | 113 ± 15 | – | – | 2.82 | 64.2 | 26.3 | – | – | 45 ± 18
